Legend:
Type in all cases: in vivo
Zea mays (ZEAMX) [1] = experiment: Pre-emergence herbicidal test; conditions: 1000 g/ha, evaluated after 13 days
[2] = system: Ipomoea hederacea (IPOHE); experiment: Pre-emergence herbicidal test; conditions: 1000 g/ha, evaluated after 13 days
[3] = system: Abutilon theophrasti (ABUTH); experiment: Pre-emergence herbicidal test; conditions: 1000 g/ha, evaluated after 13 days
[4] = system: Echinochloa crus-galli (ECHCG); experiment: Pre-emergence herbicidal test; conditions: 1000 g/ha, evaluated after 13 days
[5] = system: Ipomoea hederacea (IPOHE); experiment: Post-emergence herbicidal test; conditions: 1000 g/ha unless otherwise stated, evaluated after 13 days
Outline: (§1)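 Spray-applied at 1000 g/ha unless stated, in the glasshouse. Damage rated 13 days later on a 0–5 scale.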

Zea mays (ZEAMX) [6] = experiment: Post-emergence herbicidal test; conditions: 1000 g/ha unless otherwise stated, evaluated after 13 days
Outline: as §1

[7] = system: Abutilon theophrasti (ABUTH); experiment: Post-emergence herbicidal test; conditions: 1000 g/ha unless otherwise stated, evaluated after 13 days
Outline: as §1

[8] = system: Amaranthus retoflexus (AMARE); experiment: Post-emergence herbicidal test; conditions: 1000 g/ha unless otherwise stated, evaluated after 13 days
Outline: as §1

[9] = system: Echinochloa crus-galli (ECHCG); experiment: Post-emergence herbicidal test; conditions: 1000 g/ha unless otherwise stated, evaluated after 13 days
Outline: as §1

Setaria faberi (SETFA) [10] = experiment: Post-emergence herbicidal test; conditions: 1000 g/ha unless otherwise stated, evaluated after 13 days
Outline: as §1

[11] = system: Amaranthus retoflexus (AMARE); experiment: Pre-emergence herbicidal test; conditions: 1000 g/ha, evaluated after 13 days
Setaria faberi (SETFA) [12] = experiment: Pre-emergence herbicidal test; conditions: 1000 g/ha, evaluated after 13 days

## CCOC(=O)c1nn(-c2ccc(OC(F)(F)F)cc2)c2ccc(CC(C)C)c(S(C)(=O)=O)c2c1=O [Compound P45, ethyl 6-isobutyl-5-methylsulfonyl-4-oxo-1-[4-(trifluoromethoxy)phenyl]cinnoline-3-carboxylate]
Zea mays (ZEAMX) [1]
  percentage damage caused to the plant, five-point scale, ZEAMX: 0 (0=0%)
[2]
  percentage damage caused to the plant, five-point scale, IPOHE: 0 (0=0%)
[3]
  percentage damage caused to the plant, five-point scale, ABUTH: 0 (0=0%)
[4]
  percentage damage caused to the plant, five-point scale, ECHCG: 0 (0=0%)
[5]
  percentage damage caused to the plant, IPOHE (five-point scale): 0 (0=0%)
Zea mays (ZEAMX) [6]
  percentage damage caused to the plant, ZEAMX (five-point scale): 1 (1=10-20%)
[7]
  percentage damage caused to the plant, ABUTH (five-point scale): 0 (0=0%)
[8]
  percentage damage caused to the plant, AMARE (five-point scale): 0 (0=0%)
[9]
  percentage damage caused to the plant, ECHCG (five-point scale): 1 (1=10-20%)
Setaria faberi (SETFA) [10]
  percentage damage caused to the plant, SETFA (five-point scale): 1 (1=10-20%)
[11]
  percentage damage caused to the plant, five-point scale, AMARE: 0 (0=0%)
Setaria faberi (SETFA) [12]
  percentage damage caused to the plant, five-point scale, SETFA: 0 (0=0%)

## CCOC(=O)c1nn(-c2ccc(OC(F)(F)F)cc2)c2cc(F)cc(SC)c2c1=O [Compound P54, ethyl 7-fluoro-5-methylsulfanyl-4-oxo-1-[4-(trifluoromethoxy)phenyl]cinnoline-3-carboxylate]
Zea mays (ZEAMX) [1]
  percentage damage caused to the plant, five-point scale, ZEAMX: 0 (0=0%)
[2]
  percentage damage caused to the plant, five-point scale, IPOHE: 0 (0=0%)
[3]
  percentage damage caused to the plant, five-point scale, ABUTH: 1 (1=10-20%)
[4]
  percentage damage caused to the plant, five-point scale, ECHCG: 2 (2=21-40%)
[5]
  percentage damage caused to the plant, IPOHE (five-point scale): 1 (1=10-20%)
Zea mays (ZEAMX) [6]
  percentage damage caused to the plant, ZEAMX (five-point scale): 1 (1=10-20%)
[7]
  percentage damage caused to the plant, ABUTH (five-point scale): 1 (1=10-20%)
[8]
  percentage damage caused to the plant, AMARE (five-point scale): 2 (2=21-40%)
[9]
  percentage damage caused to the plant, ECHCG (five-point scale): 0 (0=0%)
Setaria faberi (SETFA) [10]
  percentage damage caused to the plant, SETFA (five-point scale): 0 (0=0%)
[11]
  percentage damage caused to the plant, five-point scale, AMARE: 1 (1=10-20%)
Setaria faberi (SETFA) [12]
  percentage damage caused to the plant, five-point scale, SETFA: 2 (2=21-40%)

## CS(=O)(=O)c1cccc2c1c(=O)c(C(=O)O)nn2-c1ccc(Cl)cc1F [Compound P41, 1-(4-chloro-2-fluoro-phenyl)-5-methylsulfonyl-4-oxo-cinnoline-3-carboxylic acid]
Zea mays (ZEAMX) [1]
  percentage damage caused to the plant, five-point scale, ZEAMX: 1 (1=10-20%)
[2]
  percentage damage caused to the plant, five-point scale, IPOHE: 1 (1=10-20%)
[3]
  percentage damage caused to the plant, five-point scale, ABUTH: 1 (1=10-20%)
[4]
  percentage damage caused to the plant, five-point scale, ECHCG: 2 (2=21-40%)
[5]
  percentage damage caused to the plant, IPOHE (five-point scale): 1 (1=10-20%)
Zea mays (ZEAMX) [6]
  percentage damage caused to the plant, ZEAMX (five-point scale): 1 (1=10-20%)
[7]
  percentage damage caused to the plant, ABUTH (five-point scale): 1 (1=10-20%)
[8]
  percentage damage caused to the plant, AMARE (five-point scale): 1 (1=10-20%)
[9]
  percentage damage caused to the plant, ECHCG (five-point scale): 4 (4=61-80%)
Setaria faberi (SETFA) [10]
  percentage damage caused to the plant, SETFA (five-point scale): 4 (4=61-80%)
[11]
  percentage damage caused to the plant, five-point scale, AMARE: 1 (1=10-20%)
Setaria faberi (SETFA) [12]
  percentage damage caused to the plant, five-point scale, SETFA: 4 (4=61-80%)

## CCOC(=O)c1nn(-c2ccc(OC(F)(F)F)cc2)c2cccc(S(=O)(=O)CC(F)(F)F)c2c1=O [Compound P40, ethyl 4-oxo-5-(2,2,2-trifluoroethylsulfonyl)-1-[4-(trifluoromethoxy)phenyl]cinnoline-3-carboxylate]
Zea mays (ZEAMX) [1]
  percentage damage caused to the plant, five-point scale, ZEAMX: 1 (1=10-20%)
[2]
  percentage damage caused to the plant, five-point scale, IPOHE: 0 (0=0%)
[3]
  percentage damage caused to the plant, five-point scale, ABUTH: 1 (1=10-20%)
[4]
  percentage damage caused to the plant, five-point scale, ECHCG: 0 (0=0%)
[5]
  percentage damage caused to the plant, IPOHE (five-point scale): 0 (0=0%)
Zea mays (ZEAMX) [6]
  percentage damage caused to the plant, ZEAMX (five-point scale): 1 (1=10-20%)
[7]
  percentage damage caused to the plant, ABUTH (five-point scale): 1 (1=10-20%)
[8]
  percentage damage caused to the plant, AMARE (five-point scale): 1 (1=10-20%)
[9]
  percentage damage caused to the plant, ECHCG (five-point scale): 1 (1=10-20%)
Setaria faberi (SETFA) [10]
  percentage damage caused to the plant, SETFA (five-point scale): 1 (1=10-20%)
[11]
  percentage damage caused to the plant, five-point scale, AMARE: 0 (0=0%)
Setaria faberi (SETFA) [12]
  percentage damage caused to the plant, five-point scale, SETFA: 1 (1=10-20%)

## O=C(O)c1nn(-c2ccc(OC(F)(F)F)cc2)c2cccc(SC3CC3)c2c1=O [Compound P30, 5-cyclopropylsulfanyl-4-oxo-1-[4-(trifluoromethoxy)phenyl]cinnoline-3-carboxylic acid]
Zea mays (ZEAMX) [1]
  percentage damage caused to the plant, five-point scale, ZEAMX: 0 (0=0%)
[2]
  percentage damage caused to the plant, five-point scale, IPOHE: 0 (0=0%)
[3]
  percentage damage caused to the plant, five-point scale, ABUTH: 0 (0=0%)
[4]
  percentage damage caused to the plant, five-point scale, ECHCG: 0 (0=0%)
[5]
  percentage damage caused to the plant, IPOHE (five-point scale): 1 (1=10-20%)
Zea mays (ZEAMX) [6]
  percentage damage caused to the plant, ZEAMX (five-point scale): 1 (1=10-20%)
[7]
  percentage damage caused to the plant, ABUTH (five-point scale): 1 (1=10-20%)
[8]
  percentage damage caused to the plant, AMARE (five-point scale): 1 (1=10-20%)
[9]
  percentage damage caused to the plant, ECHCG (five-point scale): 1 (1=10-20%)
Setaria faberi (SETFA) [10]
  percentage damage caused to the plant, SETFA (five-point scale): 1 (1=10-20%)
[11]
  percentage damage caused to the plant, five-point scale, AMARE: 0 (0=0%)
Setaria faberi (SETFA) [12]
  percentage damage caused to the plant, five-point scale, SETFA: 0 (0=0%)

## CS(=O)(=O)c1cc(F)cc2c1c(=O)c(C(=O)O)nn2-c1ccc(OC(F)(F)F)cc1 [Compound P21, 7-fluoro-5-methylsulfonyl-4-oxo-1-[4-(trifluoromethoxy)phenyl]cinnoline-3-carboxylic acid]
Zea mays (ZEAMX) [1]
  percentage damage caused to the plant, five-point scale, ZEAMX: 1 (1=10-20%)
[2]
  percentage damage caused to the plant, five-point scale, IPOHE: 0 (0=0%)
[3]
  percentage damage caused to the plant, five-point scale, ABUTH: 0 (0=0%)
[4]
  percentage damage caused to the plant, five-point scale, ECHCG: 2 (2=21-40%)
[5]
  percentage damage caused to the plant, IPOHE (five-point scale): 0 (0=0%)
Zea mays (ZEAMX) [6]
  percentage damage caused to the plant, ZEAMX (five-point scale): 0 (0=0%)
[7]
  percentage damage caused to the plant, ABUTH (five-point scale): 0 (0=0%)
[8]
  percentage damage caused to the plant, AMARE (five-point scale): 0 (0=0%)
[9]
  percentage damage caused to the plant, ECHCG (five-point scale): 2 (2=21-40%)
Setaria faberi (SETFA) [10]
  percentage damage caused to the plant, SETFA (five-point scale): 2 (2=21-40%)
[11]
  percentage damage caused to the plant, five-point scale, AMARE: 0 (0=0%)
Setaria faberi (SETFA) [12]
  percentage damage caused to the plant, five-point scale, SETFA: 4 (4=61-80%)

## O=C(O)c1nn(-c2ccc(OC(F)(F)F)cc2)c2cccc([S+]([O-])CC(F)(F)F)c2c1=O (stereo not drawn) [Compound P37, 4-oxo-5-(2,2,2-trifluoroethylsulfinyl)-1-[4-(trifluoromethoxy)phenyl]cinnoline-3-carboxylic acid]
Zea mays (ZEAMX) [1]
  percentage damage caused to the plant, five-point scale, ZEAMX: 0 (0=0%)
[2]
  percentage damage caused to the plant, five-point scale, IPOHE: 0 (0=0%)
[3]
  percentage damage caused to the plant, five-point scale, ABUTH: 1 (1=10-20%)
[4]
  percentage damage caused to the plant, five-point scale, ECHCG: 0 (0=0%)
[5]
  percentage damage caused to the plant, IPOHE (five-point scale): 1 (1=10-20%)
Zea mays (ZEAMX) [6]
  percentage damage caused to the plant, ZEAMX (five-point scale): 1 (1=10-20%)
[7]
  percentage damage caused to the plant, ABUTH (five-point scale): 1 (1=10-20%)
[8]
  percentage damage caused to the plant, AMARE (five-point scale): 0 (0=0%)
[9]
  percentage damage caused to the plant, ECHCG (five-point scale): 1 (1=10-20%)
Setaria faberi (SETFA) [10]
  percentage damage caused to the plant, SETFA (five-point scale): 1 (1=10-20%)
[11]
  percentage damage caused to the plant, five-point scale, AMARE: 0 (0=0%)
Setaria faberi (SETFA) [12]
  percentage damage caused to the plant, five-point scale, SETFA: 0 (0=0%)

## CCOC(=O)c1nn(-c2ccc(Cl)cc2F)c2cccc(S(C)(=O)=O)c2c1=O [Compound P42, ethyl 1-(4-chloro-2-fluoro-phenyl)-5-methylsulfonyl-4-oxo-cinnoline-3-carboxylate]
Zea mays (ZEAMX) [1]
  percentage damage caused to the plant, five-point scale, ZEAMX: 0 (0=0%)
[2]
  percentage damage caused to the plant, five-point scale, IPOHE: 1 (1=10-20%)
[3]
  percentage damage caused to the plant, five-point scale, ABUTH: 1 (1=10-20%)
[4]
  percentage damage caused to the plant, five-point scale, ECHCG: 3 (3=41-60%)
[5]
  percentage damage caused to the plant, IPOHE (five-point scale): 1 (1=10-20%)
Zea mays (ZEAMX) [6]
  percentage damage caused to the plant, ZEAMX (five-point scale): 1 (1=10-20%)
[7]
  percentage damage caused to the plant, ABUTH (five-point scale): 1 (1=10-20%)
[8]
  percentage damage caused to the plant, AMARE (five-point scale): 1 (1=10-20%)
[9]
  percentage damage caused to the plant, ECHCG (five-point scale): 4 (4=61-80%)
Setaria faberi (SETFA) [10]
  percentage damage caused to the plant, SETFA (five-point scale): 4 (4=61-80%)
[11]
  percentage damage caused to the plant, five-point scale, AMARE: 0 (0=0%)
Setaria faberi (SETFA) [12]
  percentage damage caused to the plant, five-point scale, SETFA: 4 (4=61-80%)
